pIC50: −log10 of the molar value.
These compounds were tested against T1, Recombinant human cathepsin A (Homo sapiens, UniProt P10619) (assay: Cathepsin A inhibitory activity). Conditions: read-out: Activity (2): Cathepsin A inhibitory activity, IC50 class.
T1 construct: Recombinant human cathepsin A (residues 29-480, with a C-terminal 10-His tag); 10-His (C); purchased R&D Systems 1049-SE
T1 sequence (P10619 29-312 limits assumed): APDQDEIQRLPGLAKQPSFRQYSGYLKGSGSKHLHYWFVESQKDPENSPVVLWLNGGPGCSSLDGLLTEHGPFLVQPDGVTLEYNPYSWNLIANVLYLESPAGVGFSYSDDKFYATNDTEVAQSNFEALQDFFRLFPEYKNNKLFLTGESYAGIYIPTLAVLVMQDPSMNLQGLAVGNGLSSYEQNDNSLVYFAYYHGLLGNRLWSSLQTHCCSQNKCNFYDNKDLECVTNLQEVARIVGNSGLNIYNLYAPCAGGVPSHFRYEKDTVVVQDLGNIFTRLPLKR
T1 sequence (P10619 327-480 limits assumed): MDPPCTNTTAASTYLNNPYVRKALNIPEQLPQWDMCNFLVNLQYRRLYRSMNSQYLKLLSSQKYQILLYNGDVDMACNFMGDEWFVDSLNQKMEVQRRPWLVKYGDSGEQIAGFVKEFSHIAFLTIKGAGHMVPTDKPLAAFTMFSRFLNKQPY
Assay type: biochemical
Method in brief: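 Read-out was microfluidic separation of cleaved vs. uncleaved Bodipy FL-bradykinin (2 μM), giving turnover, % inhibition and IC50. Compound and 833 ng/ml enzyme met for 15 min RT in pH 5.5 MES/DTT before substrate (15 min RT). The 29-480 His-tagged human enzyme was first activated by cathepsin L, then E-64 (10 μM).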
O=C(O)C[C@H](NC(=O)c1cc(O)n(-c2ccc(F)cc2)n1)c1c(F)cccc1F [Example 368] was tested, and the pIC50 was 6.00 to 7.00. O=C(O)C[C@H](NC(=O)c1cc(O)n(-c2ccc(F)cc2)n1)c1ccc(Cl)cc1 [Example 369] showed a pIC50 of 6.00 to 7.00. O=C(O)C[C@H](NC(=O)c1cc(O)n(-c2ccc(F)cc2)n1)c1ccc(Cl)cc1Cl [Example 370] showed a pIC50 of 6.00 to 7.00. With O=C(O)CC(NC(=O)c1cc(O)n(-c2ccc(F)cc2)n1)c1ccc(-c2ccc(F)cc2)cc1 (stereo not drawn) [Example 371] the pIC50 was 6.00 to 7.00. With O=C(O)C[C@H](NC(=O)c1cc(O)n(-c2ccc(F)cc2)n1)c1cccnc1 [Example 372] the pIC50 was 4.52 to 6.00. COc1ccc(C(CC(=O)O)NC(=O)c2cc(O)n(-c3ccccc3)n2)c(C)c1 (stereo not drawn) [Example 373] was tested, and the pIC50 was 6.00 to 7.00. COc1ccc([C@H](CC(=O)O)NC(=O)c2cc(O)n(-c3ccccc3)n2)cc1 [Example 374] gave a pIC50 of 6.00 to 7.00. Work on COc1ccc(Cl)cc1C(CC(=O)O)NC(=O)c1cc(O)n(-c2ccccc2)n1 (stereo not drawn) [Example 375] yielded a pIC50 of 6.00 to 7.00. Cc1cccc([C@H](CC(=O)O)NC(=O)c2cc(O)n(-c3ccccc3)n2)c1 [Example 376] was tested, and the pIC50 was 6.00 to 7.00. Cc1cccc(C(CC(=O)O)NC(=O)c2cc(O)n(-c3ccccc3)n2)c1C (stereo not drawn) [Example 377] gave a pIC50 of 6.00 to 7.00. With Cc1ccc(C)c(C(CC(=O)O)NC(=O)c2cc(O)n(-c3ccccc3)n2)c1 (stereo not drawn) [Example 378] the pIC50 was 6.00 to 7.00. COc1ccc(C(CC(=O)O)NC(=O)c2cc(O)n(-c3ccc(F)cc3F)n2)c(C)c1 (stereo not drawn) [Example 379] gave a pIC50 of 6.00 to 7.00. Compound O=C(O)CC(NC(=O)c1cc(O)n(-c2ccc(F)cc2F)n1)c1cccc(Cl)c1 (stereo not drawn) [Example 380] has a pIC50 of 6.00 to 7.00. Compound N#Cc1cccc([C@H](CC(=O)O)NC(=O)c2cc(O)n(-c3ccc(F)cc3F)n2)c1 [Example 381] has a pIC50 of 6.00 to 7.00. Work on COc1ccc([C@H](CC(=O)O)NC(=O)c2cc(O)n(-c3ccc(F)cc3F)n2)cc1 [Example 382] yielded a pIC50 of 6.00 to 7.00. COc1ccc(C(CC(=O)O)NC(=O)c2cc(O)n(-c3ccc(F)cc3F)n2)c(OC)c1 (stereo not drawn) [Example 383] gave a pIC50 of 6.00 to 7.00. O=C(O)CC(NC(=O)c1cc(O)n(-c2ccc(F)cc2F)n1)c1ccc(-c2cccc(F)c2)cc1 (stereo not drawn) [Example 384] showed a pIC50 of 6.00 to 7.00. O=C(O)CC(NC(=O)c1cc(O)n(-c2ccc(F)cc2F)n1)c1cccc(C(F)(F)F)c1F (stereo not drawn) [Example 385, 3-{[1-(2,4-Difluoro-phenyl)-5-hydroxy-1H-pyrazole-3-carbonyl]-amino}-3-(2-fluoro-3-trifluoromethyl-phenyl)-propionic acid] gave a pIC50 greater than 7.00. O=C(O)CC(NC(=O)c1cc(O)n(-c2ccc(F)cc2F)n1)c1cccc(Oc2ccc(Cl)cc2)c1 (stereo not drawn) [Example 386] gave a pIC50 of 6.00 to 7.00. Work on O=C(O)C[C@H](NC(=O)c1cc(O)n(-c2ccc(F)cc2F)n1)c1ccccc1F [Example 387] yielded a pIC50 of 6.00 to 7.00. In the case of O=C(O)C[C@H](NC(=O)c1cc(O)n(-c2ccc(F)cc2F)n1)c1c(F)cccc1F [Example 388], the pIC50 was 6.00 to 7.00. O=C(O)C[C@H](NC(=O)c1cc(O)n(-c2ccc(F)cc2F)n1)c1cccnc1 [Example 389] gave a pIC50 of 4.52 to 6.00. For COc1ccc([C@H](CC(=O)O)NC(=O)c2cc(O)n(-c3ccc(F)cc3F)n2)cn1 [Example 390], the pIC50 was 6.00 to 7.00. Work on O=C(O)CC(NC(=O)c1cc(O)n(-c2ccccc2Cl)n1)c1cccc(Cl)c1 (stereo not drawn) [Example 391] yielded a pIC50 of 6.00 to 7.00. With COc1ccc([C@H](CC(=O)O)NC(=O)c2cc(O)n(-c3ccccc3Cl)n2)cc1 [Example 392] the pIC50 was 6.00 to 7.00. O=C(O)C[C@H](NC(=O)c1cc(O)n(-c2ccccc2Cl)n1)c1cccc(F)c1 [Example 393] was tested, and the pIC50 was 6.00 to 7.00. COc1cccc([C@H](CC(=O)O)NC(=O)c2cc(O)n(-c3ccccc3Cl)n2)c1OC [Example 394] was tested, and the pIC50 was 6.00 to 7.00. COc1ccc(C(CC(=O)O)NC(=O)c2cc(O)n(-c3ccccc3F)n2)c(C)c1 (stereo not drawn) [Example 395] was tested, and the pIC50 was 6.00 to 7.00. O=C(O)CC(NC(=O)c1cc(O)n(-c2ccccc2F)n1)c1cccc(Cl)c1 (stereo not drawn) [Example 396] showed a pIC50 of 6.00 to 7.00. Work on O=C(O)C[C@H](NC(=O)c1cc(O)n(-c2ccccc2F)n1)c1ccccc1Br [Example 397] yielded a pIC50 greater than 7.00. With COc1ccc([C@H](CC(=O)O)NC(=O)c2cc(O)n(-c3ccccc3F)n2)cc1 [Example 398] the pIC50 was 6.00 to 7.00. For O=C(O)C[C@H](NC(=O)c1cc(O)n(-c2ccccc2F)n1)c1cccc(Cl)c1Cl [Example 399], the pIC50 was greater than 7.00. In the case of O=C(O)C[C@H](NC(=O)c1cc(O)n(-c2ccccc2F)n1)c1cccc(F)c1 [Example 400], the pIC50 was 6.00 to 7.00. O=C(O)C[C@H](NC(=O)c1cc(O)n(-c2ccccc2F)n1)c1cccc(Cl)c1 [Example 401] showed a pIC50 of 6.00 to 7.00. In the case of O=C(O)CC(NC(=O)c1cc(O)n(-c2ccccc2F)n1)c1cccc(Cl)c1Cl (stereo not drawn) [Example 402], the pIC50 was greater than 7.00. Work on COc1cccc([C@H](CC(=O)O)NC(=O)c2cc(O)n(-c3ccccc3F)n2)c1OC [Example 403] yielded a pIC50 of 6.00 to 7.00. Cc1cccc([C@H](CC(=O)O)NC(=O)c2cc(O)n(-c3ccccc3F)n2)c1 [Example 404] showed a pIC50 of 6.00 to 7.00.

Same assay, conditions: recombinant human cathepsin A 833 ng/ml, Bodipy FL-labeled bradykinin 2 μM, pH 5.5; read-out: CATH-A IC50
Compound O=C(O)CC(NC(=O)c1cc(O)n(-c2ccc(F)cc2F)n1)c1cccc(C(F)(F)F)c1F (stereo not drawn) [Example 385, 3-{[1-(2,4-Difluoro-phenyl)-5-hydroxy-1H-pyrazole-3-carbonyl]-amino}-3-(2-fluoro-3-trifluoromethyl-phenyl)-propionic acid] has a pIC50 of 7.22. O=C(O)CC(NC(=O)c1cc(O)n(-c2cccc(Cl)c2)n1)c1cccc(C(F)(F)F)c1F (stereo not drawn) [Example 418, 3-{[1-(3-Chloro-phenyl)-5-hydroxy-1H-pyrazole-3-carbonyl]-amino}-3-(2-fluoro-3-trifluoromethyl-phenyl)-propionic acid] showed a pIC50 of 5.28.

Same assay, conditions: recombinant human cathepsin A; read-out: Activity (2): Cathepsin A inhibitory activity, IC50 class
For Cc1cccc(C(CC(=O)O)NC(=O)c2cc(O)n(-c3ccccc3F)n2)c1C (stereo not drawn) [Example 405], the pIC50 was greater than 7.00. With Cc1ccc(C)c(C(CC(=O)O)NC(=O)c2cc(O)n(-c3ccccc3F)n2)c1 (stereo not drawn) [Example 406] the pIC50 was 6.00 to 7.00. In the case of O=C(O)CC(NC(=O)c1cc(O)n(-c2ccccc2F)n1)c1ccc(Cl)c(Cl)c1 (stereo not drawn) [Example 407], the pIC50 was 6.00 to 7.00. O=C(O)CC(NC(=O)c1cc(O)n(-c2cccc(Cl)c2)n1)c1cccc(Cl)c1 (stereo not drawn) [Example 408] showed a pIC50 of 6.00 to 7.00. Work on COc1ccc([C@H](CC(=O)O)NC(=O)c2cc(O)n(-c3cccc(Cl)c3)n2)cc1 [Example 409] yielded a pIC50 of 4.52 to 6.00. With N#Cc1ccc([C@H](CC(=O)O)NC(=O)c2cc(O)n(-c3cccc(Cl)c3)n2)cc1 [Example 410] the pIC50 was 4.52 to 6.00. O=C(O)C[C@H](NC(=O)c1cc(O)n(-c2cccc(Cl)c2)n1)c1ccc(F)cc1 [Example 411] gave a pIC50 of 4.52 to 6.00. O=C(O)C[C@H](NC(=O)c1cc(O)n(-c2cccc(Cl)c2)n1)c1cccc(Cl)c1Cl [Example 412] showed a pIC50 of 4.52 to 6.00. COc1cccc([C@H](CC(=O)O)NC(=O)c2cc(O)n(-c3cccc(Cl)c3)n2)c1 [Example 413] gave a pIC50 of 4.52 to 6.00. O=C(O)C[C@H](NC(=O)c1cc(O)n(-c2cccc(Cl)c2)n1)c1cccc(F)c1 [Example 414] gave a pIC50 of 4.52 to 6.00. Compound O=C(O)C[C@H](NC(=O)c1cc(O)n(-c2cccc(Cl)c2)n1)c1cccc(Cl)c1 [Example 415] has a pIC50 of 6.00 to 7.00. COc1ccccc1[C@@H](NC(=O)c1cc(O)n(-c2cccc(Cl)c2)n1)[C@@H](O)C(=O)O [Example 416] showed a pIC50 of 4.52 to 6.00. Work on COc1cccc([C@H](CC(=O)O)NC(=O)c2cc(O)n(-c3cccc(Cl)c3)n2)c1OC [Example 417] yielded a pIC50 of 6.00 to 7.00. Compound O=C(O)CC(NC(=O)c1cc(O)n(-c2cccc(Cl)c2)n1)c1cccc(C(F)(F)F)c1F (stereo not drawn) [Example 418, 3-{[1-(3-Chloro-phenyl)-5-hydroxy-1H-pyrazole-3-carbonyl]-amino}-3-(2-fluoro-3-trifluoromethyl-phenyl)-propionic acid] has a pIC50 of 4.52 to 6.00. For Cc1ccc(C(CC(=O)O)NC(=O)c2cc(O)n(-c3cccc(Cl)c3)n2)c(C)c1 (stereo not drawn) [Example 419], the pIC50 was 6.00 to 7.00. In the case of Cc1cc(F)ccc1C(CC(=O)O)NC(=O)c1cc(O)n(-c2cccc(Cl)c2)n1 (stereo not drawn) [Example 420], the pIC50 was 6.00 to 7.00. With O=C(O)CC(NC(=O)c1cc(O)n(-c2cccc(Cl)c2)n1)c1ccc(-c2ccccc2)cc1 (stereo not drawn) [Example 421] the pIC50 was 6.00 to 7.00. O=C(O)C[C@H](NC(=O)c1cc(O)n(-c2cccc(Cl)c2)n1)c1ccccc1F [Example 422] was tested, and the pIC50 was 6.00 to 7.00. COc1ccc([C@H](CC(=O)O)NC(=O)c2cc(O)n(-c3ccc(Cl)cc3)n2)cc1 [Example 423] was tested, and the pIC50 was 4.52 to 6.00. With COc1ccc(C(CC(=O)O)NC(=O)c2cc(O)n(-c3ccc(Cl)cc3)n2)c(Cl)c1 (stereo not drawn) [Example 424] the pIC50 was 6.00 to 7.00. O=C(O)CC(NC(=O)c1cc(O)n(-c2ccc(Cl)cc2)n1)c1ccc(-c2ccc(F)cc2)cc1 (stereo not drawn) [Example 425] was tested, and the pIC50 was 4.52 to 6.00. Compound COc1ccc(C(CC(=O)O)NC(=O)c2cc(O)n(-c3cccc(F)c3)n2)c(C)c1 (stereo not drawn) [Example 426] has a pIC50 of 6.00 to 7.00. For COc1ccc([C@H](CC(=O)O)NC(=O)c2cc(O)n(-c3cccc(F)c3)n2)cc1 [Example 427], the pIC50 was 4.52 to 6.00. Work on O=C(O)C[C@H](NC(=O)c1cc(O)n(-c2cccc(F)c2)n1)c1cccc(Cl)c1Cl [Example 428] yielded a pIC50 of 6.00 to 7.00. Work on COc1cccc([C@H](CC(=O)O)NC(=O)c2cc(O)n(-c3cccc(F)c3)n2)c1 [Example 429] yielded a pIC50 of 6.00 to 7.00. O=C(O)C[C@H](NC(=O)c1cc(O)n(-c2cccc(F)c2)n1)c1cccc(Cl)c1 [Example 430] showed a pIC50 of 6.00 to 7.00. With COc1cccc([C@H](CC(=O)O)NC(=O)c2cc(O)n(-c3cccc(F)c3)n2)c1OC [Example 431] the pIC50 was 6.00 to 7.00. With Cc1cccc(C(CC(=O)O)NC(=O)c2cc(O)n(-c3cccc(F)c3)n2)c1C (stereo not drawn) [Example 432] the pIC50 was 6.00 to 7.00. In the case of O=C(O)C[C@H](NC(=O)c1cc(O)n(-c2cccc(F)c2)n1)c1ccccc1F [Example 433], the pIC50 was 6.00 to 7.00. O=C(O)C[C@H](NC(=O)c1cc(O)n(-c2cccc(F)c2)n1)c1c(F)cccc1F [Example 434] gave a pIC50 of 6.00 to 7.00.

From US8664257B2, “Oxygen-substituted 3-heteroaroylamino-propionic acid derivatives and their use as pharmaceuticals” (Sanofi, priority 2010, dated 2014)
